Counter-ions that a name gives are not always drawn.
What was measured:
water solubility = format: physicochemical; details: weight to weight basis
P. berghei = experiment: antimalarial activity, standard in vivo test procedure against P. berghei in Swiss mice (ED50 on day 4 of treatment); details: for ED50 Day 4 (mean values): effective dose which decreases the cell parasitemia by 50 percent on day 4 of treatment: Swiss mice infected i.p. with P. berghei, oral intubation in 0.2% methyl cellulose, 1, 4, 16 mg/kg/day × 4 days, 4 mice per group, 5760 min
Protocol: The antimalarial activity of 1-[1,3-dichloro-6-trifluoromethyl-9-phenanthryl]-3-di(n-butyl)aminopropanol quinate (Compound A) was established utilizing the following methodology. Test animals were infected by interperitoneal injection of 9×10^6 parasitized cells of P. berghei contained in 0.25 ml of 1:40 dilution in 0.9% aqueous sodium chloride with potassium citrate added of donor mouse blood which was infected with P. berghei one week earlier. Three days after injection, 3 groups of 4 mice (2 males and 2 females) were treated with Compound A at a dose level of 1, 4 and 16 mg/kg/day for 4 consecutive days. Similarly, a positive control of 3 groups of 4 mice (2 males and 2 females) were treated with halofantrine, as the hydrochloride salt, at a dose level of 1, 4 and 16 mg/kg/day for 4 consecutive days. The route of administration of Compound A and halofantrine was oral intubation of a suspension of each compound in 0.2% methyl cellulose at a constant volume of […]. A negative control group of 4 mice (2 males and 2 females) remained untreated. The results of the above test procedure expressed as an ED50 (the effective dose which decrease the cell parasitemia by 50 percent on day 4 of treatment) are shown below in Table I.

[1] = tested on: multi-drug resistant Vietnam Smith strain of P. falciparum; details: administered over a short period of time, minimum of two doses; cited from earlier work
[2] = tested on: Cambodian Buchanan strain of P. falciparum; details: administered over a short period of time, minimum of two doses; cited from earlier work
[3] = tested on: Chesson strain of P. vivax; details: administered over a short period of time, minimum of two doses; cited from earlier work
[4] = in vivo; cited from earlier work

Compound	solubility (water solubility)	times more effective, on a weight by weight basis, than halofantrine hydrochloride (ED50 on day 4) (P. berghei; P. berghei malaria in mice, compared to halofantrine hydrochloride)	ED50 Day 4 (mean values): effective dose which decreases the cell parasitemia by 50 percent on day 4 of treatment (P. berghei)	effectiveness against Vietnam Smith strain [1]	effectiveness against Cambodian Buchanan strain [2]	effectiveness against Chesson strain of P. vivax [3]	systemic bioavailability [4]	ED50 Day 4 (mean values): effective dose which decreases the cell parasitemia by 50 percent on day 4 of treatment (P. berghei; hydrochloride)
CCCCN(CCCC)CCC(O)c1cc2c(Cl)cc(Cl)cc2c2cc(C(F)(F)F)ccc12 (centres unmarked) [Compound A, 1-[1,3-dichloro-6-trifluoromethyl-9-phenanthryl]-3-di(n-butyl)aminopropanol quinate]	≤ 200 mg/mL	at least 6 times	≤ 1 mg/kg					
CCCCN(CCCC)CCC(O)c1cc2c(Cl)cc(Cl)cc2c2cc(C(F)(F)F)ccc12 (centres unmarked) [Halofantrine (HCl), 1-[1,3-dichloro-6-trifluoromethyl-9-phenanthryl]-3-di-(n-butyl)-aminopropanol hydrochloride]				effective	effective	effective	problems with systemic bioavailability remained	6 mg/kg

— patent US4818767A, “Quinate salts of antimalarial phenanthrenemethanol compounds” (SmithKline Beckman Corporation, priority 1983, dated 1989)
